# Reference: patent US20250051820A1 (priority 2021, published 2025)
# Where two headings read alike, the source gives them in different places.
# What was measured:
# High Five cells [1] = system: High Five cells
# Procedure: High Five cells (Thermo Fisher Scientific, Express Five™ SFM) were seeded at a seeding concentration of 1×10^6 cells/mL so as to satisfy a culture scale of 30 mL. Twenty-four hours after the initiation of culture, calcium chloride was added so as to increase a final concentration by 1, 10 and 100 mM. Here, a calcium chloride-free group was used as a control. From day 3 to 5, the cell culture solution was sampled and stained with a 0.2% trypan blue solution. The numbers of viable cells and dead cells were counted by a hemocytometer. From the total cell count and the viable-cell count, the rate of viable cells was calculated.
# High Five cells [2] = conditions: MOI=0.5, day 4 supernatant; for improvement of the yield of the recombinant protein: relative to absence of calcium chloride
# Procedure: A High Five cell culture solution in which cells were seeded at a seeding concentration of 1×10^6 cells/mL so as to satisfy a culture scale of 30 mL, was infected with a recombinant baculovirus prepared by integrating a gene sequence of a norovirus VP1 protein, at MOI=0.5. On Day 1 after the initiation of culture, calcium chloride was added so as to increase a final concentration by 2.5, 25, 250, 500 and 1 000 μM, and then, the cell culture was continued. On day 3, Benzonase (Merck) was added so as to be a final concentration of 50 U/mL and […] protease inhibitor tablets (Thermo Fisher Scientific) was added, and then, the cell culture was continued. On day 4, the culture supernatant was collected in the same manner as in Example 2 and subjected to Western Blotting.
# For Western Blotting, after electrophoresis was carried out in the same manner as in Example 1, a transfer reaction was carried out from the gel to PVDF membrane (Merck) by a semi-dry transfer device (ATTO CORPORATION). After the transfer reaction, the PVDF membrane was soaked in a 10% skim milk-containing TBS and incubated at room temperature for two hours. After the PVDF membrane was washed three times with an appropriate amount of TBS and soaked in an anti-norovirus VP1 protein antibody (manufactured by the inventors) diluted with a 1% skim milk-containing TBST and incubated at 4° C. for from 18 to 20 hours. The PVDF membrane was washed five times with an appropriate amount of TBST, soaked in a HRP-labeled anti-mouse antibody (Jackson Immuno Research Laboratories) diluted with 1% skim milk-containing TBST, and incubated at room temperature for one hour. The PVDF membrane was washed five times with an appropriate amount of TBST and allowed to develop color with Western Lightning-Plus ECL (Perkin Elmer). The PVDF membrane was photographed by an image analyzer (Bio-Rad) and subjected to densitometric analysis.
# Densitometric analysis was carried out in the same manner as in Example 1, and the relative amount of VP1 to the condition in the absence of calcium chloride was calculated.
# High Five cells [3] = conditions: for VP1 band intensity (relative value): MOI=0.1, day 4 supernatant, negative control = 100%
# Procedure: High Five cells (Thermo Fisher Scientific, Express Five™ SFM) were seeded at a seeding concentration of 1×10^6 cells/mL so as to satisfy a culture scale of 30 mL.
smiles,measurement,setting,value
[Ca+2].[Cl-].[Cl-] [calcium chloride],concentration of calcium chloride that is not cytotoxic,"High Five cells [1]; High Five cells, day 3 to 5",≤ 1 mM
same,viable cell rate,"High Five cells [1]; calcium chloride final concentration increased by 1 mM, added 24 h after initiation of culture, day 3 to 5, versus calcium chloride-free control",the same as in the control
same,viable cell rate,"High Five cells [1]; calcium chloride final concentration increased by 10 mM, day 3",low
same,viable cell rate,"High Five cells [1]; calcium chloride final concentration increased by 100 mM, day 3",low
same,improvement of the yield of the recombinant protein,High Five cells [2]; calcium chloride 25 μM added on Day 1,about 40%
same,improvement of the yield of the recombinant protein,High Five cells [2]; calcium chloride 250 μM added on Day 1,about 40%
same,yield of the recombinant protein,High Five cells [2]; calcium chloride 500 μM added on Day 1,seems to decrease
same,yield of the recombinant protein,High Five cells [2]; calcium chloride 1 000 μM added on Day 1,seems to decrease
same,VP1 band intensity (relative value),High Five cells [3]; 25 μM calcium chloride added 0 hr after infection,102%
same,improvement of the yield of a protein of interest,"High Five cells [3]; 25 μM calcium chloride added 24 hours after the initiation of culture, relative to absence of calcium chloride",about 108
same,VP1 band intensity (relative value),High Five cells [3]; 25 μM calcium chloride added 24 hr after infection,111%
same,VP1 band intensity (relative value),High Five cells [3]; 25 μM calcium chloride added 48 hr after infection,102%
